# Tests used:
# [1] = system: mammary tumors; conditions: previously shown; cited from earlier work
# [2] = Triglyceride levels in LL2 dose ranging study; conditions: bexarotene 30 mg/kg; plasma
# Method: In this study, 7-8 week old male C57/BL6 mice were injected with 1×10^6 LL2 cells subcutaneously into the left flank. Tumors were measured with calipers twice per week (Monday and Thursday) and mice were weighed once per week (Monday). […] When tumors reached endpoint (20×20 mm or ulceration), mice were euthanized and tumors fixed in formalin. Blood was collected for plasma. Stats: two-way ANOVA w/Tukey HSD.
# [3] = system: LL2 cells; assay: LL2 subcutaneous tumor dose ranging study; type: in vivo, C57/BL6 mice; conditions: bexarotene 30 mg/kg
# [4] = system: Kras-driven lung tumors; assay: Established Kras-driven lung tumors in A/J mice (vinyl carbamate initiation); type: in vivo
# Method: FIG. 2 is photographs of mouse lungs and mouse lung tissue section stains collected […] of Kras mutations with vinyl carbamate. A/J mice were fed control diet or RXR agonists (100 mg/kg diet or 25 mg/kg body weight) for 12 weeks. Lungs were harvested and photographed (A) and then sectioned and stained with hematoxylin and eosin (“H & E”) to evaluate tumor grade (B) as defined in collaboration with a human lung cancer pathologist. […] Compound 1 has the structure: FIG. 3 is a plot of tumor burden and photographs of mouse lung tissue section stains. Eight weeks after initiation of Kras mutations, A/J mice were fed control diet or compound 1 (25 mg/kg) for 12 weeks. Lungs were sectioned and stained with H & E or by immunohistochemistry (“IHC”) to evaluate tumor burden or biomarkers, respectively. […] FIG. 4 is plots showing data collected from lung tumors induced in A/J mice as described in FIG. 3. After 12 weeks of treatment with compound 1 (25 mg/kg) or control diet, lungs were harvested. Immune cell populations in the lungs were analyzed by flow cytometry using an optimized multi-colored panel of antibodies.
# [5] = system: RXR; assay: RXR activation; conditions: read-out: EC50 in activating RXR
# [6] = system: NF1-ipNF 95.6 neurofibroma cells; assay: p-ERK expression by western blotting in neurofibroma cells; type: cell-based, human; conditions: 3 hours; for reduction of p-ERK expression: 50 nM selumetinib, 200 nM compound 1 or combination
# Method: (§1) FIGS. 6A and 6B are a […] and a plot, respectively, generated from experiments on NF1-ipNF 95.6 neurofibroma cells treated with 50 nM selumetinib (Sel), 5 nM trametinib (Tra, an alternative MEK inhibitor used as a control), 200 nM compound 1, or the combination for 3 hours. Protein expression was evaluated by western blotting and LiCOR imaging (A). In B, cells were treated with 200 nM MSU42011, 100 nM Sel or the combination for 72 hrs, and cell viability measured using an MTT assay. *, P<0.05 vs. other groups.
# [7] = system: mammary tumors; assay: MMTV-neu mice with established mammary tumors; type: in vivo; conditions: for T cell / immune cell populations in mammary tumors: flow cytometry and IHC
# Method: FIG. 5 is plots and stains obtained from MMTV-neu mice with established mammary tumors, which were treated with compound 1 for 10 days. Tumor size (A) was evaluated by calipers, immune cell populations by flow cytometry (B) and IHC (C). n=8 mice/group in A-C and n=4/group for quantification (D) of PCNA and p-ERK optical density. The data in FIG. 5 compound 1 reduces tumor burden and p-ERK and alters T cell populations in mammary tumors.
# [8] = system: THP1 macrophages; assay: CCL2 mRNA (qPCR) in THP1 macrophages stimulated with conditioned medium from ipNF95.6 cells; type: cell-based, human; conditions: 50 nM selumetinib, 200 nM compound 1 or combination, 24 hrs, PMA + CM
# Method: FIG. 8 is a plot showing results of experiments involving THP1 human monocytes that were differentiated into macrophages with 50 ng/ml PMA for 3 days, followed by treatment with conditioned medium (CM) from ipNF95.6 neurofibroma cells and drugs (50 nM selumetinib (Sel), 200 nM compound 1, or the combination) for an additional 24 hrs. CCL2 expression was evaluated by qPCR and normalized to the DMSO control without treatment with PMA+CM (not shown). Data represent means±standard deviations of two independent experiments, p<0.05 vs. DMSO control.
# FIG. 10A is a plot showing the results where THP1 monocytes were differentiated into macrophages with 50 ng/ml PMA for 3 days, followed by treatment with CM from human PNF cells (ipNF95.6) and drugs (50 nM selumetinib, 200 nM compound 1, or the combination) for an additional 24 hrs.
# Combination treatment with compound 1 and selumetinib decreased CCL2 mRNA expression in THP1 cells and BMDM stimulated with conditioned media (CM) from human and mouse PNF cells. […] CCL2 mRNA expression was evaluated by qPCR and normalized to the DMSO control without CM treatment (not shown). Data represent means±standard deviations. * p<0.05, ** p<0.01 compared with vehicle treatment.
# [9] = system: NF1-ipNF 95.6 neurofibroma cells; assay: MTT cell viability in neurofibroma cells; type: cell-based, human; conditions: 200 nM MSU42011, 100 nM selumetinib or combination, 72 hrs
# Method: as §1
# [10] = Triglyceride elevation in vivo
# [11] = flow cytometry of lungs, p<0.05
compound,measurement,setting,value
Cc1cc2c(cc1C1(c3ccc(C(=O)O)cn3)CC1)C(C)(C)CCC2(C)C [LG100268],"CD206+ tumor-promoting macrophages, MDSCs and Foxp3+ Tregs in tumors",[1],decreased
same,number of activated cytotoxic CD8 T cells in tumors,[1],increased
C=C(c1ccc(C(=O)O)cc1)c1cc2c(cc1C)C(C)(C)CCC2(C)C [bexarotene],triglyceride levels,[2],raises triglycerides
same,"CD206+ tumor-promoting macrophages, MDSCs and Foxp3+ Tregs in tumors",[1],not observed
same,number of activated cytotoxic CD8 T cells in tumors,[1],not observed
same,activity against the tumors,[3],not active against the tumors
"CC(C)N(c1cc(C(C)(C)C)cc(C(C)(C)C)c1)c1ccc(C(=O)O)cn1 [compound 1, 6-[(3,5-di-tert-butylphenyl) (propan-2-yl)amino]pyridine-3-carboxylic acid]",lung tumor burden,"[4]; 25 mg/kg in diet, 12 weeks",significantly (p=0.0015) reduced
same,tumor-promoting CD206+ macrophages within lung tumors,[4]; IHC,reduced
same,p-ERK levels within lung tumors,"[4]; IHC, p=0.03",reduced
same,"activated cytotoxic T cells (ratio of CD8+/CD4+, CD25+)",[4]; [11],increased
same,immunosuppressive CD4+CD25+ Tregs,[4]; [11],decreased
same,tumors that were high grade,"[4]; histopathology, control group 77%, p<0.05",62%
same,average tumor burden lower compared to the control and bexarotene groups,"[4]; lungs of A/J mice, 100 mg/kg diet (25 mg/kg body weight), 12 weeks, p=0.015",60%
same,"number, size and histopathology of lung tumors",[4]; vs untreated controls and bexarotene-treated mice,significantly (p<0.05) decreased
same,EC50,[5],0.03 µM
same,reduction of p-ERK expression,[6],approximately 70%
same,expression of p-ERK,"[6]; 200 nM compound 1, 50 nM selumetinib",decreases
same,T cell / immune cell populations in mammary tumors,[7],alters
same,T cell / immune cell populations in mammary tumors,[7]; listed as Compound 1,alters the same immune cells in this model as LG100268
same,p-ERK in mammary tumors,"[7]; treated 10 days, IHC optical density",reduces
same,tumor burden in mammary tumors,"[7]; treated 10 days, calipers",reduces
same,decrease of CCL2 mRNA expression,[8],23%
same,cell viability,[9],reduces viability
same,elevation of triglycerides in vivo,[10],does not elevate triglycerides
"Cn1cnc2c(F)c(Nc3ccc(Br)cc3Cl)c(C(=O)NOCCO)cc21 [selumetinib, reference compound]",reduction of p-ERK expression,[6],~40%

# Reference: patent US20260174745A1, “COMPOSITIONS AND METHODS FOR TREATING NF1 AND OTHER CONDITIONS” (priority 2022, published 2026)
